Test results published in patent publication US7335757B2, “Carbonyl reductase, gene encoding the same, and process for producing optically active alcohols using the same” (Mitsubishi Chemical Corporation, priority 2002, dated 2008).

B1: carbonyl reductase: Carbonyl reductase purified from Ogataea minuta var. nonfermentans IFO 1473, amino acid sequence SEQ ID NO: 1, about 27,000 Da by SDS-PAGE (protein)
chain: MAKTVYFIAGASRGIGLEVASQLSANPDNYVIASYRSEKSASGLLELAKKDNVDTIVLDIASQESIDAVPAQISKLTDGIDVALINAGIANAMCPILECSRESYTDHWTTNALGPIMLYQAIHKFMLQRETRKVFFTTSAGGSIQAKIPVPVSGYGMSKAALNYAVRKLADECYKDNFTIVLLHPGFVKTDMGQSAIQKMSNGNAELLAYIDSMTIDVPTSAGQIVGAIMTLDKQSSGRFINAADQFDMPF
modifications: Ogataea minuta var nonfermentans

system: carbonyl reductase; test: Temperature stability of the enzyme (residual 2,2,2-trifluoroacetophenone reducing activity); format: biochemical, Ogataea minuta var. nonfermentans IFO 1473; settings: 50° C. or more, 10 minutes, 20 mM phosphate buffer pH 7.0

Molecule | residual activity
B1 | rapidly deactivated

same assay, conditions: 70° C., 10 minutes, 20 mM phosphate buffer pH 7.0

Molecule | residual activity
B1 | lost the activity completely

same assay, conditions: up to 40° C., 10 minutes, 20 mM phosphate buffer pH 7.0

Molecule | residual activity [%]
B1 | ≥ 79

system: carbonyl reductase; test: Reduction activity of the enzyme on various ketones and aldehyde (initial rate of NADPH decrease); format: biochemical, Ogataea minuta var. nonfermentans IFO 1473; settings: pH 7

Molecule | Specific activity (%)
CC(=O)c1ccc(Cl)cc1 [p-Chloro-acetophenone] | 10.2
O=C1CCCCC1Cl (centres unmarked) [2-Chloro-cyclohexanone] | 163.0
CC(=O)C(C)=O [Diacetyl] | 12.3
CCC(=O)c1ccccc1 [Propiophenone] | 18.8
CC(=O)c1cccc(Cl)c1 [m-Chloro-acetophenone] | 30.7
O=C(CCl)c1ccccc1 [2-Chloro-acetophenone] | 19.6
O=C(c1ccccc1)C(F)(F)F [2,2,2-Trifluoro-acetophenone] | 100.0
N#CCCc1ccccc1 [Benzylacetonitrile] | 25.9

same assay, conditions: relative to 2,2,2-trifluoroacetophenone defined as 100; NADPH, 0.1 M phosphate buffer pH 7.0

Molecule | Specific activity (%)
CC1(C)COC(=O)C1=O [α-Keto-pantolactone] | 26.3
O=Cc1ccccc1[N+](=O)[O-] [o-Nitrobenzaldehyde] | 52.6
CC1(Cl)CCCCC1=O (centres unmarked) [2-Chloro-2-Methyl-cyclohexanone] | 105.4
O=Cc1ccccc1Cl [o-Chlorobenzaldehyde] | 81.2
O=Cc1ccc(Cl)cc1 [p-Chlorobenzaldehyde] | 15.2
CC(=O)c1cccc(Br)c1 [m-Bromo-acetophenone] | 21.3
CCOC(=O)C(=O)C(C)C [Ethyl-3-methyl-2-oxobutanoate] | 72.1
CCOC(=O)CC(=O)c1ccccc1 [Ethyl benzoylacetate] | 10.9
O=Cc1cccc(Cl)c1 [m-Chlorobenzaldehyde] | 14.3
O=Cc1cccc([N+](=O)[O-])c1 [m-Nitrobenzaldehyde] | 45.6

system: carbonyl reductase; test: 2,2,2-trifluoroacetophenone reducing activity after treating the enzyme with various reagents; format: biochemical, Ogataea minuta var. nonfermentans IFO 1473; settings: enzyme treated at 30° C. for 10 minutes
Experimental: Further, the enzyme was treated in various reagents at 30° C. for 10 minutes and then 2,2,2-trifluoroacetophenone reducing activity was measured.

Molecule | activity of enzyme in the presence of reagent
[Cl][Pb][Cl] [lead chloride] | considerably inhibited
O=[N+]([O-])[O-].[Hg+] [mercury nitrate] | considerably inhibited
